Measurements published in patent publication US20210196607A1 (HESED BIO CO., LTD., priority 2017, published 2021).

Key:
[1] = tested on: B16F10 mouse melanoma cells; test: Measuring amount of melanin; format: cell-based
Experimental: B16F10 mouse melanoma cells were seeded into a 6-well cell culture plate at a density of 1×10^5/well. […] The obtained cells were disrupted and then centrifuged to obtain a cell precipitate, and 1 N NaOH containing 10% DMSO was added thereto. Thereafter, the resulting precipitate was allowed to react at 60° C. for 1 hour, and absorbance at 405 nm was measured.

[2] = tested on: tyrosinase; test: Tyrosinase protein and mRNA amount in MSH-treated B16F10 cells; format: cell-based, mouse
Source text: Antibodies were purchased from respective manufacturers. Tyrosinase, 14-3-3ζ, LAMIN B (Santa Cruz), MITF (Abcam), phospho-MITF (Sigma), ERK, phospho-ERK (Cell Signaling), ACTIN (MPBIO), and GAPDH (Bethyl) were used.
(§1) Total RNA was extracted from each group of cells using a TRI reagent (Molecular Research Center). Extracted RNA was reverse transcribed using an ImProm™ Reverse Transcription System (Promega), followed by measurement using a StepOnePlus™ Real-Time PCR System (Applied Biosystems).

[3] = molecular target: T1, tyrosinase (Mus musculus, UniProt P11344); test: Degree of tyrosinase activity at cellular level; format: cell-based; details: B16F10 cells
T1 construct: The obtained cells were disrupted and then centrifuged to separate a supernatant; endogenous in cells; host or cells: B16F10 mouse melanoma cells, stimulated with melanocyte stimulating hormone
T1 sequence (P11344 19-533): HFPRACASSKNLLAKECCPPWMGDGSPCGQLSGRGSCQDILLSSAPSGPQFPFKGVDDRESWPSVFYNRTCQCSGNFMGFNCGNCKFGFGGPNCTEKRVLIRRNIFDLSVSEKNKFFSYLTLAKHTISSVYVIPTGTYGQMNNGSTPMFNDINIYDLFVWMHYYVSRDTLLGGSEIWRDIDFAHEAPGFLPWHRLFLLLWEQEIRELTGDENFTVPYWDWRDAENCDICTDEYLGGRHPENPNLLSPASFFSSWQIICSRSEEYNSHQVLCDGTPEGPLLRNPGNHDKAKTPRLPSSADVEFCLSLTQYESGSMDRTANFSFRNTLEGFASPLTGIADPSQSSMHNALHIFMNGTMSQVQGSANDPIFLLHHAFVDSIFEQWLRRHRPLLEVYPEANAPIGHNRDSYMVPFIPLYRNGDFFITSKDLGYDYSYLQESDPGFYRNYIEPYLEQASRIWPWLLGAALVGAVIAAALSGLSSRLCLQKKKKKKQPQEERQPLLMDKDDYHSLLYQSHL
Experimental: B16F10 mouse melanoma cells were seeded into a 6-well cell culture plate at a density of 1×10^5/well. […] The obtained cells were disrupted and then centrifuged to separate a supernatant. The protein concentration of the supernatant was measured, and 50 μg of protein per sample was standardized into a volume of 50 μl and placed on a 96-well plate. Then, 100 μl of 0.1% L-DOPA was added as a reaction substrate to each sample and allowed to react at 37° C. for 1 hour, and then absorbance at 475 nm was measured.

[4] = molecular target: T2, ERα ligand-binding domain (Homo sapiens, UniProt P03372); test: Estrogen receptor reporter (GAL4 luciferase) experiment; format: cell-based
T2 construct: expressed in transfected cells; host or cells: HEK 293A cells
T2 sequence (P03372 311-547 limits assumed): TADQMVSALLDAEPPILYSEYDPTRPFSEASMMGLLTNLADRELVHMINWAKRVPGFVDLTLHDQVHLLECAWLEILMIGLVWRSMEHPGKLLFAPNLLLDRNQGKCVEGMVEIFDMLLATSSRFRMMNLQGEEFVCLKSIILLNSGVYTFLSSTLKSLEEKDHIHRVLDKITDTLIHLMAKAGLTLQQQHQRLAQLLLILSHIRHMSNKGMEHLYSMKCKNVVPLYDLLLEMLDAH
T2 sequence (P04386 1-147 partner limits assumed): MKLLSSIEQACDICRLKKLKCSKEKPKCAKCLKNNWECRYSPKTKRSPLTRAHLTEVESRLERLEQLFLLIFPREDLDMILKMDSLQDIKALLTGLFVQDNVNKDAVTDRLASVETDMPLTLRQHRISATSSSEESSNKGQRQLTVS
Experimental: To deliver a DNA plasmid into HEK 293A cells, a microporator (Invitrogen/Neon® Transfection System) was used. At one time, 1 μg of a reporter plasmid was delivered into 1 million cells. The DNA-delivered cells were cultured in a general culture medium. The activities of Renilla and Firefly luciferases were measured using a Dual-Luciferase® Reporter Assay System (Promega). To measure the activity of an estrogen receptor (ER) reporter, a system, in which, when a specific material binds to the ER ligand domain, GAL4 binds to a specific DNA sequence, resulting in expression of the Firefly luciferase, was used, and the Renilla luciferase was delivered together to calibrate DNA transfer efficiency. The activity of the estrogen receptor reporter was determined by dividing a value of the Firefly luciferase by a value of the Renilla luciferase. […] When HEK 293A cells to which reporter DNAs were delivered were treated with 50 μM of the extract, the expression of the luciferases was nearly 3.5 times higher than that of the control (see FIG. 5B).

[5] = tested on: cells; test: Cytotoxicity experiment (MTT experiment); format: cell-based
Experimental: 1-1: Cell Culture HEK 293A and B16F10 cells used, Dulbecco's Modified Eagle's Medium (DMEM) containing 10% fetal bovine serum and 1% penicillin/streptomycin as a nutrient source, and were incubated in an incubator maintained at 37° C. under 5% CO2.
This is an experiment for measuring the number of living cells through conversion of 3-(4,5-dimethyl-thiazol-2-yl)-2,5-diphenyl tetrazolium bromide (MTT) into formazan with a purple color, by reduction in cells. Cells were seeded into a 96-well cell culture plate at a density of 3×10^3. […] Thereafter, the culture medium was removed, and a solvent for dissolving crystallized formazan was added to dissolve the sample, and the absorbance at 570 nm of the dissolved sample was measured.

[6] = tested on: estrogen receptor signaling pathway; test: mRNA of estrogen receptor target genes; format: cell-based; details: HEK 293A cells (FIG. 5D)
Source text: as §1

[7] = tested on: heat shock protein 70 (HSP70); test: Expression of heat shock protein 70 under heat stress; format: cell-based, mouse; details: B16F10 cells
Experimental: Total protein was extracted from the cells using a THE buffer, and then the amount thereof was measured using a Bradford reagent. In addition, proteins were separated by SDS-PAGE and identified using antibodies, followed by quantitative analysis. Antibodies were purchased from respective manufacturers, and HSP70 (Santa Cruz) and actin (MPBIO) were used.
as §1

[8] = 100 nM melanocyte stimulating hormone for 48 hours
[9] = increasing amount of 8-methoxybutin (FIG. 2D)

decrease in tyrosinase activity [3, 8]: ≥ 110%
expression of the luciferases relative to the control ([4]; HEK 293A cells with reporter DNAs, 50 μM (FIG. 5B)): ~3.5 times
expression of luciferases depending on concentration ([4]; HEK 293A cells, concentration increased from 10 μM (FIG. 5C)): statistically significant increase
amount of mRNA of target genes [6]: increased
Structure (SMILES): COc1c(O)ccc2c1OC(c1ccc(O)c(O)c1)CC2=O (centres unmarked) [8-methoxybutin, 2-(3,4-dihydroxyphenyl)-7-hydroxy-8-methoxy-2,3-dihydro-4H-1-benzopyran-4-one]
decrease in melanin synthesis amount [1, 8]: ≥ 50%
melanin synthesis with increasing amount of compound [1, 9]: in proportion to the amount of 8-methoxybutin
amount of tyrosinase protein ([2]; B16F10 cells treated with melanocyte stimulating hormone (FIG. 2B)): remarkable decrease
tyrosinase mRNA level ([2]; B16F10 cells treated with melanocyte stimulating hormone (FIG. 2C)): confirmed at an mRNA level
amount of tyrosinase protein with increasing amount of compound ([2]; B16F10 cells, increasing amount of 8-methoxybutin (FIG. 2E)): reduced in proportion to the amount of 8-methoxybutin
tyrosinase activity with increasing amount of compound [3, 9]: in proportion to the amount of 8-methoxybutin
cell survival rate ([5]; 24 hours treatment, high as well as low concentration): about 100%
cytotoxicity ([5]; high concentration, 100 μM): cytotoxicity was hardly observed
amount of heat shock protein 70 mRNA compared to the control ([7]; heat stress (FIG. 3B)): larger amount
amount of heat shock protein 70 (HSP70) compared to a control ([7]; heat-applied condition 42° C. for 1 hour, DMSO control (FIG. 3A)): increased at least three times
